Measurements as given in PubChem BioAssay AID1645866 (Buhrlage Lab, Dana-Farber Cancer Institute and Novartis …, 2021).
The source made the active and inactive calls.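 How the source made its calls: active means in confirmatory dose-response testing, peak deubiquitinase inhibition of 30% or more; inactive means the rest.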

Target: Ubiquitin carboxyl-terminal hydrolase 28 (Homo sapiens) (UniProt Q96RU2)
Test: Concentration-response biochemical assay confirming initial hits as inhibitors of ubiquitin-specific protease 28 (AID 1645866)
Conditions: purified USP28, ubiquitin-rhodamine fluorescence, 30 min

Chain of Ubiquitin carboxyl-terminal hydrolase 28 (Homo sapiens) (Q96RU2 whole entry, looked up): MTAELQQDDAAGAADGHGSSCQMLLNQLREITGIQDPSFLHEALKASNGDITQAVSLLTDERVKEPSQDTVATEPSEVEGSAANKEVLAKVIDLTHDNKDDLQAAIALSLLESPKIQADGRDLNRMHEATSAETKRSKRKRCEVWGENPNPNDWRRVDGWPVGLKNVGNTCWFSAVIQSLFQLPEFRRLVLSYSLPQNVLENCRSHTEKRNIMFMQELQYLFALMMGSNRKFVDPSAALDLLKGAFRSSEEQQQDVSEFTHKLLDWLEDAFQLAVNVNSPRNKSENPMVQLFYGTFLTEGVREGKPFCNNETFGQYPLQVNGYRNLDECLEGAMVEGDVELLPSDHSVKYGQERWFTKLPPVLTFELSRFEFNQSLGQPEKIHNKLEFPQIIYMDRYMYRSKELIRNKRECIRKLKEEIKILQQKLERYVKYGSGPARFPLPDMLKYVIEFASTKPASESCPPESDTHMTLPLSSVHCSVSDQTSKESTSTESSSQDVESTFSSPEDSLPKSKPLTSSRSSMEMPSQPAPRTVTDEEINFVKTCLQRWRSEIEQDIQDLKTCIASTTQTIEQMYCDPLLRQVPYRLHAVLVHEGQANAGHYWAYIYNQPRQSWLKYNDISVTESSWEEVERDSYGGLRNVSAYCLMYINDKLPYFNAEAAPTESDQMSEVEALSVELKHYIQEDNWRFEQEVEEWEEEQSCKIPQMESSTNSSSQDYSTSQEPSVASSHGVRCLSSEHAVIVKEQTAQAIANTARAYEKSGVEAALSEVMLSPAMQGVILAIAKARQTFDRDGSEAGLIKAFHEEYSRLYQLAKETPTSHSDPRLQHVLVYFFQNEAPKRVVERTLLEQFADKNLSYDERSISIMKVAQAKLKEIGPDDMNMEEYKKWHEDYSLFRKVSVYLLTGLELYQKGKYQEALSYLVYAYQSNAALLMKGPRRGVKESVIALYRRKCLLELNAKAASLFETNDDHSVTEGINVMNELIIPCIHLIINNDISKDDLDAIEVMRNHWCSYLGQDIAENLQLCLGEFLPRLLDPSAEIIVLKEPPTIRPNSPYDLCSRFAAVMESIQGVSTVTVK

Compound | IC50
Cc1nnc(NCc2cccnc2)c2c1nnn2Cc1ccccc1Cl | 26.4 µM
COc1ccc(NC(=O)C2CC(=O)Nc3cc(-c4ccccc4)nn32)cc1 (stereo not drawn) | 21.7 µM
Cc1ccc(C)c(Cn2nnc3c(=O)[nH]c(C4CCN(S(=O)(=O)c5ccc(S(=O)(=O)NC6CC6)cc5)CC4)nc32)c1 | 9.09 µM
CCOC(=O)c1ccc(-n2c(=O)c(C#N)cc3c(=O)n4ccccc4nc32)cc1 | > 50 µM (inactive)
O=C(Nc1ccccc1)c1nc(-c2cn(Cc3ccc(F)cc3)nn2)no1 | 21 µM
O=C(Cn1cnc2c(cnn2-c2ccc(Cl)cc2)c1=O)NCc1ccccc1Cl | 9.05 µM
FC(F)(F)c1cccc(CSc2ccc3nnc(-c4ccccn4)n3n2)c1 | 1.75 µM
COc1cccc(/C=C/C(=O)Nc2ccc(C)c(Cl)c2)c1 | 5.79 µM
COc1cccc(NC(=O)Cc2sc(Nc3cc(C)cc(C)c3)nc2O)c1 | 18.1 µM
CC(C)N1CC2CN(C(=O)c3ccccc3)CCN2Cc2ccccc21 (stereo not drawn) | > 50 µM (inactive)
Cc1cc(N2CCC(NC(=O)NCc3ccc(F)cc3)C2=O)ccc1F (stereo not drawn) | 15 µM
Cc1ccc2c(=O)c3c([nH]c2c1C)CCN(CC(=O)NCc1ccccc1)C3 | > 50 µM (inactive)
COc1ncccc1CN1CCn2c(Cn3cccn3)cnc2C1C (stereo not drawn) | > 50 µM (inactive)
O=C1C[C@@H]2O[C@H](CNC(=O)[C@@H]3CN(CCN3C(=O)C3CCOCC3)C(=O)[C@@H]3C[C@@H](CN3Cc3ccc(F)c(F)c3)N1)[C@@H](O)[C@H]2O | > 50 µM (inactive)
Fc1ccc(CSc2nnc(-c3ccccn3)n2Cc2ccco2)cc1 | 21.9 µM
CN1C(=O)c2cc(NC(=O)c3ccccc3Cl)ccc2Oc2ccccc21 | 1.25 µM
Cc1nn(Cc2ccccc2)c(C)c1C(=O)NC1CCCc2ccccc21 (stereo not drawn) | 5.14 µM
Nc1ncnc2c1ncn2[C@@H]1O[C@H](CO)C[C@@H]1O | 26.4 µM
Cc1cccc(NC(=O)c2nn(C)c3ccccc3c2=O)c1 | 16.5 µM
CC(C)(C)C(=O)C1C2C(=O)N(c3ccc4c(c3)OCO4)C(=O)C2C2c3ccccc3C=CN12 (stereo not drawn) | > 50 µM (inactive)

Compound | IC50
COc1cc(OC)cc(-n2c(=O)c3sccc3n(CC(=O)c3ccc(F)cc3)c2=O)c1 | 28 µM
O=C(CCCc1c[nH]c2ccccc12)Nc1ccc2c(c1)OCCO2 | 4.42 µM
CCN(CC)C(=O)c1sc(NC(=O)/C=C/c2c(F)cccc2Cl)c(C#N)c1C | 2.93 µM
COCCCNC(=O)Cn1c(=O)n(Cc2ccc(C(=O)NCc3ccccc3OC)cc2)c(=O)c2ccccc21 | > 50 µM (inactive)
O=C(Cn1c(-c2ccccc2)ncc(C(=O)NC2CC2)c1=O)Nc1ccccc1 | 14.2 µM
CN(C)S(=O)(=O)c1ccc(C(=O)Nc2c(C#N)oc3ccccc23)cc1 | > 50 µM (inactive)
O=c1c2cnc(N3CCOCC3)nc2ccn1CCc1ccccc1 | 15.2 µM
COc1ccc(-c2cc(-c3ccccc3)nc(SCC(N)=O)c2C#N)cc1OC | 1.97 µM
CCN(C(=O)c1cc2c(Cl)nc3ccccc3c2s1)c1ccccc1F | > 50 µM (inactive)
CCN(CC)c1cc(C)c2cc(NC(=O)c3ccncc3)ccc2n1 | 5.88 µM
CS(=O)(=O)N1CCc2cc(C(=O)Nc3ccc(Cc4ccncc4)cc3)ccc21 | 8.75 µM
N#C/C(=C\c1ccc(-c2cc(Cl)ccc2Cl)o1)c1nnc2n1CCCCC2 | > 50 µM (inactive)
COCCNC(=O)c1ccn(-c2ccc3ccc(-c4ccncc4)cn23)n1 | > 50 µM (inactive)
COC(=O)c1sccc1NC(=O)COc1ccsc1C(=O)OC | 25.6 µM
Cc1cc(O)cc2cc3c(c(O)c12)C(=O)CCC3O (stereo not drawn) | > 50 µM (inactive)
CC(C)(C)C(=O)Nc1ccc(C(=O)Nc2cccc(-c3nnc(-c4ccccc4)o3)c2)cc1 | 4.78 µM
COc1ccc(CCn2cnc3c([nH]c4ccccc43)c2=O)cc1 | 12.5 µM
CCn1ccc2c(cc(C(=O)Nc3ccccc3F)n2C)c1=O | 15.2 µM
CCN1CCCC1CN(Cc1cc2cc(OC)ccc2[nH]c1=O)C(=O)NCc1ccccc1 (stereo not drawn) | > 50 µM (inactive)
O=S1(=O)CCN(CC2CCCO2)c2c(Oc3ccccc3)nc(F)c(Cl)c21 (stereo not drawn) | > 50 µM (inactive)

Compound | IC50
O=C(CN1C(=O)COc2ccc(Cl)cc21)Nc1cccc2ncccc12 | > 50 µM (inactive)
CC1=C[C@H]2N(c3ccc(C)cc31)[C@H](C(=O)c1cccs1)[C@@H](C(=O)c1ccc(F)cc1)[C@]21C(=O)Nc2ccccc21 | > 50 µM (inactive)
COc1cnc(-c2ccccn2)nc1Sc1ccccc1Cl | 10.9 µM
COc1ccc(-c2cc3nc([C@H](C)NC(=O)Cc4ccccc4C)nn3cn2)cc1 | 2.61 µM
c1cncc(-c2nc(Nc3ccc4c(c3)OCCO4)c3ccccc3n2)c1 | 34.9 µM
COc1ccc(/C=C\c2nccc3c2[nH]c2ccccc23)cc1 | > 50 µM (inactive)
COc1ccc(CCNc2c(-c3ccccc3O)nc3cnccn23)cc1OC | > 50 µM (inactive)
CN1c2ccccc2CN(CC(N)=O)CC1Cc1ccccc1 (stereo not drawn) | > 50 µM (inactive)
Cc1ccc(OC(=O)c2cn(-c3ccccc3)nc2-c2cccnc2)cc1 | > 50 µM (inactive)
O=C(Nc1ccc(F)cc1)Nc1ccccc1OCc1cc(=O)n2ccccc2n1 | 9.44 µM
Cc1ccc(C)c(-c2cc3c(=O)n(Cc4noc(CN5CCCCC5)n4)ccn3n2)c1 | 4.49 µM
COc1ccccc1CNC(=O)c1ccc(CSc2nc3ccncc3n2Cc2ccccc2)cc1 | 30.9 µM
COC(=O)c1cc2c(ccn2C)n1CC(=O)NC1CC1 | > 50 µM (inactive)
Cc1ccc(NC(=O)c2cnc(N3CCOCC3)nc2)cc1F | 33.3 µM
Fc1cccc(Cn2cc(-c3noc(-c4ccncc4)n3)nn2)c1 | 24.9 µM
Cc1sc2nc(CN3CCCC3)nc(NCCc3ccc(Cl)cc3)c2c1C | > 50 µM (inactive)
O=C(CC1C(=O)N(Cc2cccnc2)c2nc3ccccc3n21)Nc1cccc2ccccc12 (stereo not drawn) | > 50 µM (inactive)
Fc1cccc(-n2cc(-c3noc(-c4ccc[nH]4)n3)nn2)c1 | 27.5 µM
